Legend:
MS2 = assay: High Throughput Test to Quantify the Attachment of Phage to a Surface, RNA virus MS2; settings: for MS2 Percent Reduct. (%) / MS2 Log R (PFU/mL) compared to growth controls: pegs coated with compound in 5% glycerin and QS water, Con. Wt. %: #1,4,5,6 = 5, #2,3 = 2, #7,8,9 = 100, 1 hour phage contact; for MS2 Log R (PFU/mL) compared to growth controls: positive = inhibits attachment; for Effect against RNA viruses (MS2), in words: positive logarithmic reduction at statistically significant level = anti-adherent
Protocol: (§1) The anti-adherent compositions that inhibit the attachment of RNA and/or DNA viruses to a surface including compounds serving as anti-adherent agents against RNA and DNA viruses were tested against RNA and DNA viruses via the High Throughput Test to Quantify the Attachment of Phage to a Surface, as discussed in detail below. Tables 2 and 3 below show the variety of compounds that were tested as agents in a composition, as well as the results that related to the percent reduction in viruses and the Logarithmic Reduction compared to growth controls. As will be discussed in further detail below in the discussion regarding the High Throughput Test to Quantify the Attachment of Phage to a Surface, a positive logarithmic reduction in viruses equates to anti-adherent properties (e.g., inhibits attachment), and a negative logarithmic reduction in viruses equates to adherent properties (e.g., increases attachment).
The RNA virus that the compositions were tested against for attachment behaviors was MS2. Bacteriophage are commonly utilized as surrogates of mammalian viruses in both medical and virology applications. MS2 phage is commonly utilized as a viral surrogate because of its size, morphology, environmental stability, non-human infectivity, and the ability for use in high throughput assays. Additionally, MS2 is commonly used as a surrogate to study the spread of human Norovirus (See, Tung-Thompson, et al, PLoS One, 2015, 10(8): e0134277, Dawson D J, et al, J App Micro, 2005, 98: 203-209, Jones, et al, J Hosp Infect, 1991, 17:279-85). The use of MS2 phage in hand sanitizer studies makes it an ideal surrogate to study the interaction of personal care products and viral attachment. It is believed that compositions including the adherent agents noted above would act in a substantially similar behavior to other RNA viruses as they did against MS2.
(§2) 1.5 Phage (MS2 and PhiX 174) Enumeration: • 1.5.1 Phage is prepared for use from the stock by diluting 1:1 in BPB. • 1.5.2 Spot Plate Method: • 1.5.2.1 A cell dilution of ˜10^6 CFU/mL of E. coli (E. coli K12 is used for MS2 phage and E. coli C is used for PhiX 174) is prepared from the prepared washed broth culture by diluting in sterile BPB. • 1.5.2.2 An inoculum check is performed on the bacterial dilution in triplicate. • 1.5.2.3 In a 96 well plate, columns 1-12 are filled with 180 μL of the 10^6 CFU/ml E. coli suspension in BPB • 1.5.2.4 20 μL of the samples to be diluted is added in column 1. • 1.5.2.5 10-fold (10×Dilution) in BPB is performed from 10^1-10^12 by moving 20 μL from column 1 to column 2 and mixing. This is repeated, moving down the columns until column 12. • 1.5.2.6 20 μL (or 10 if agar permits) is spot plated on a large labelled OSA plate (spot plate every second column to avoid cross merging of spot plated phages. • 1.5.2.7 Plates are inverted & incubated for 24 h at 37° C. • 1.5.2.8 After 24 h the number of PFU is counted.
(§3) • 1.6.1 Preparation of compounds and coating compounds onto MBEC plate lid • 1.6.2 Using a positive displacement pipette aseptically add 200 μL of compounds to be tested to a sterile 96-well microplate according to the plate layout described below. • 1.6.3 Add 200 μL of each code to the appropriate well for sterility controls. • 1.6.4 Place the MBEC plate lid, peg side down into the 96-well microplate containing the test compound solutions. • 1.6.5 Allow the plate to sit at room temperature (25±3° C.) for 2 hrs. • 1.6.6 Remove the MBEC plate lid and allow the lid to dry at room temperature (25±3° C.) overnight in a laminar flow hood by spacing the MBEC plate lid from the MBEC plate trough with two 10 μL disposable loops. […]

S. aureus ATCC 6538 = assay: High Throughput Attachment Test Method (bacterial attachment to MBEC pegs), S. aureus; type: cell-based, Staphylococcus aureus; settings: pegs coated with compound in 5% glycerin and QS water; Con. Wt. %: #1,4,5,6 = 5; #2,3 = 2; #7,8,9 = 100; 15 min bacterial challenge
Protocol: (§4) Anti-adherent compositions including anti-adherent agents as discussed herein were tested against bacteria using the High Throughput Attachment Test Method. The High Throughput Attachment Test Method is discussed in further detail below. The anti-adherent compositions including the anti-adherent agents were tested against Gram-positive Staphylococcus aureus, and Gram-negative Escherichia coll. The pH of the compositions for this testing between 3 to 10 pH, or about 4 to about 8 pH.
(§5) This test method specifies the operational parameters required to grow and or prevent the formation of bacterial attachment using a high throughput screening assay. The assay device consists of a plastic lid with ninety-six (96) pegs and a corresponding receiver plate with ninety-six (96) individual wells that have a maximum 200 μL working volume. Biofilm is established on the pegs under static batch conditions (i.e., no flow of nutrients into or out of an individual well).
(§6) 6.1.1 E. coli ATCC 11229 and S. aureus ATCC 6538 are the organisms used in this test.
(§7) 6.1.5 Incubate flask at 35±2° C. and 175±10 rpm for 16 to 18 hours (E. coli and S. aureus). Viable bacterial density should be 10^9 CFU/mL and should be checked by serial dilution and plating.
(§8) 6.1.6 Pipette 10 mL from the incubation flask of E. coli and S. aureus into a 50 mL conical tube and spin down at 5 minutes at 4,000×g. Then remove supernatant and Resuspend in 10 mL sterile PBS. Approximate cell density should be 10^7-10^9 CFU/mL. Vortex the sample for approximately 30 seconds to achieve a homogeneous distribution of cells.
(§9) 6.2.1.1.1 Using a positive displacement pipette aseptically add 200 μL of compounds and control to be tested to a sterile 96-well microplate according to the plate layout of Table 4 below.
(§10) 6.2.1.1.3 Place the MBEC plate lid, peg side down into the 96-well microplate containing the test compound solutions.
(§11) 6.2.1.1.4 Allow the plate to sit at room temperature (25±3° C.) for 2 hours.
(§12) 6.2.1.1.5 Remove the MBEC plate lid and allow the lid to dry at room temperature (25±3° C.) overnight in a laminar flow hood. […]

E. coli ATCC 11229 = assay: High Throughput Attachment Test Method (bacterial attachment to MBEC pegs), E. coli; type: cell-based, Escherichia coli; settings: pegs coated with compound in 5% glycerin and QS water; Con. Wt. %: #1,4,5,6 = 5; #2,3 = 2; #7,8,9 = 100; 15 min bacterial challenge
Protocol: as §4, §5, §6, §7, §8, §9, §10, §11, §12

Phi X 174 = assay: High Throughput Test to Quantify the Attachment of Phage to a Surface, DNA virus Phi X 174; set-up: species or system Phi X 174 bacteriophage; settings: for Phi X 174 Percent Reduct. (%) / Phi X 174 Log. R (PFU/mL) compared to growth controls: pegs coated with compound in 5% glycerin and QS water, Con. Wt. %: #1,4,5,6 = 5, #2,3 = 2, #7,8,9 = 100, 1 hour phage contact; for Phi X 174 Log. R (PFU/mL) compared to growth controls: positive = inhibits attachment; for Effect against DNA viruses (Phi X 174), in words: positive logarithmic reduction at statistically significant level = anti-adherent
Protocol: as §1
The DNA virus that the compositions were tested against for attachment behaviors was Phi X 174. Bacteriophage are commonly utilized as surrogates of mammalian viruses in both medical and virology applications. Phi X 174 is commonly utilized as a viral surrogate because of its size, morphology, environmental stability, and non-human infectivity, and the ability for use in high throughput assays. Phi X174 has been previously been used to study barrier efficacy, making it an ideal surrogate to study attachment to a surface (See, Haman and Nelson, Am J Infect Control, 1993, 21:289-96, O'Connell, et al, Clin Microb Infect, 2004, 10:322-6, ASTM F1671/F1671M-13, Standard Test Method for Resistance of Materials Used in Protective Clothing to Penetration by Blood-Borne Pathogens Using Phi X174 Bacteriophage Penetration as a Test System). Thus, it is well accepted by those of ordinary skill in the art that Phi X 174 serves as a surrogate for other DNA viruses, and the compositions including the adherent agents noted above would act in a substantially similar behavior to other DNA viruses as they did against Phi X 174.
as §2, §3

SMILES | MS2 Percent Reduct. (%) (MS2) | MS2 Log R (PFU/mL) compared to growth controls (MS2) | Ratio of S. aureus growth on treated pegs to untreated pegs (%) (S. aureus ATCC 6538) | Ratio of E. coli growth on treated pegs to untreated pegs (%) (E. coli ATCC 11229) | Phi X 174 Percent Reduct. (%) (Phi X 174) | Phi X 174 Log. R (PFU/mL) compared to growth controls (Phi X 174) | Effect against RNA viruses (MS2), in words (MS2) | Effect against DNA viruses (Phi X 174), in words (Phi X 174)
CCCCC(CC)COC(=O)c1ccccc1O (stereo not shown) [Compound 8, Ethylhexyl Salicylate] | 85.40% | 0.84 PFU/mL | 75.4% | 111.1% | 91.45% | 1.07 PFU/mL | – | –
CCCCC(CC)COC(=O)C(C#N)=C(c1ccccc1)c1ccccc1 (stereo not shown) [Compound 9, Octocrylene] | −30.27% | −0.11 PFU/mL | 81.9% | 114.1% | 93.44% | 1.18 PFU/mL | neutral | anti-adherent
CCCCCCCCCCCCCCCCCC(=O)OCC(CC)CCCC (stereo not shown) [Compound 7, Ethylhexyl Stearate] | 87.46% | 0.90 PFU/mL | 68.6% | 48.4% | 98.58% | 1.85 PFU/mL | anti-adherent | anti-adherent

— patent publication US11168287B2, “Anti-adherent compositions and methods of inhibiting the adherence of microbes to a surface” (Kimberly-Clark Worldwide, Inc., priority 2016, dated 2021)
